Measured values reported in ChEMBL document CHEMBL1201862, “PubChem BioAssay data set” (2004).
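Five compound concentrations were applied to cells in 96-well plates for 48 hours; endpoints were derived by simple linear interpolation of the resulting dose-response curve. Abbreviation: GI50, concentration required for 50% inhibition of growth.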 Calls of active or inactive are those of the source. Cut-off read from the data, not from the text of the source: active = GI50 up to about 1.1 µM and inactive = higher.

What was measured:
Assay in all cases: NCI tumour cell line growth inhibition, 48 h
786-0 = tested on: 786-0
A498 = tested on: A498
A549 = tested on: A549
ACHN = tested on: ACHN
BT-549 = tested on: BT-549
CAKI-1 = tested on: CAKI-1
CCRF-CEM = tested on: CCRF-CEM
COLO 205 = tested on: COLO 205
DU-145 = tested on: DU-145
EKVX = tested on: EKVX
HCC 2998 = tested on: HCC 2998
HCT-116 = tested on: HCT-116
HCT-15 = tested on: HCT-15
HL-60 = tested on: HL-60
HOP-62 = tested on: HOP-62
HOP-92 = tested on: HOP-92
HT-29 = tested on: HT-29
Hs-578T = tested on: Hs-578T
IGROV-1 = tested on: IGROV-1
K562 = tested on: K562
KM12 = tested on: KM12
LOX IMVI = tested on: LOX IMVI
M14 = tested on: M14
MCF7 = tested on: MCF7
MDA-MB-231 = tested on: MDA-MB-231
MDA-MB-435 = tested on: MDA-MB-435
MDA-N = tested on: MDA-N
MOLT-4 = tested on: MOLT-4
Malme-3M = tested on: Malme-3M
NCI-H226 = tested on: NCI-H226
NCI-H23 = tested on: NCI-H23
NCI-H460 = tested on: NCI-H460
NCI-H522 = tested on: NCI-H522
NCI/ADR-RES = tested on: NCI/ADR-RES
OVCAR-3 = tested on: OVCAR-3
OVCAR-4 = tested on: OVCAR-4
OVCAR-5 = tested on: OVCAR-5
OVCAR-8 = tested on: OVCAR-8
PC-3 = tested on: PC-3
RPMI-8226 = tested on: RPMI-8226
RXF 393 = tested on: RXF 393
SF-268 = tested on: SF-268
SF-295 = tested on: SF-295
SF-539 = tested on: SF-539
SK-MEL-28 = tested on: SK-MEL-28
SK-MEL-2 = tested on: SK-MEL-2
SK-MEL-5 = tested on: SK-MEL-5
SK-OV-3 = tested on: SK-OV-3
SN12C = tested on: SN12C
SNB-19 = tested on: SNB-19
SNB-75 = tested on: SNB-75
SR = tested on: SR
SW-620 = tested on: SW-620
T47D = tested on: T47D
TK-10 = tested on: TK-10
U-251 = tested on: U-251
UACC-257 = tested on: UACC-257
UACC-62 = tested on: UACC-62
UO-31 = tested on: UO-31

COc1ccc(C(C)NNC(=O)c2cc[n+]([BH2-]C#N)cc2)cc1F (stereo not drawn)
GI50 (786-0): > 100 µM (inactive)
GI50 (A498): > 100 µM (inactive)
GI50 (A549): > 100 µM (inactive)
GI50 (ACHN): > 100 µM (inactive)
GI50 (BT-549): > 100 µM (inactive)
GI50 (CAKI-1): > 100 µM (inactive)
GI50 (CCRF-CEM): > 100 µM (inactive)
GI50 (COLO 205): > 100 µM (inactive)
GI50 (DU-145): > 100 µM (inactive)
GI50 (EKVX): > 100 µM (inactive)
GI50 (HCC 2998): > 100 µM (inactive)
GI50 (HCT-116): > 100 µM (inactive)
GI50 (HCT-15): > 100 µM
GI50 (HL-60): > 100 µM (inactive)
GI50 (HOP-62): > 100 µM (inactive)
GI50 (HOP-92): > 100 µM (inactive)
GI50 (HT-29): > 100 µM (inactive)
GI50 (Hs-578T): > 100 µM (inactive)
GI50 (IGROV-1): > 100 µM (inactive)
GI50 (K562): > 100 µM (inactive)
GI50 (KM12): > 100 µM (inactive)
GI50 (LOX IMVI): > 100 µM (inactive)
GI50 (M14): > 100 µM (inactive)
GI50 (MCF7): > 100 µM (inactive)
GI50 (MDA-MB-231): > 100 µM (inactive)
GI50 (MDA-MB-435): > 100 µM (inactive)
GI50 (MDA-N): > 100 µM (inactive)
GI50 (MOLT-4): > 100 µM (inactive)
GI50 (Malme-3M): > 100 µM (inactive)
GI50 (NCI-H226): > 100 µM (inactive)
GI50 (NCI-H23): 96.2 µM (inactive)
GI50 (NCI-H460): > 100 µM (inactive)
GI50 (NCI-H522): > 100 µM (inactive)
GI50 (NCI/ADR-RES): > 100 µM (inactive)
GI50 (OVCAR-3): > 100 µM (inactive)
GI50 (OVCAR-4): > 100 µM (inactive)
GI50 (OVCAR-5): > 100 µM (inactive)
GI50 (OVCAR-8): > 100 µM (inactive)
GI50 (PC-3): > 100 µM (inactive)
GI50 (RPMI-8226): > 100 µM (inactive)
GI50 (RXF 393): > 100 µM (inactive)
GI50 (SF-268): > 100 µM (inactive)
GI50 (SF-295): > 100 µM (inactive)
GI50 (SF-539): > 100 µM (inactive)
GI50 (SK-MEL-28): > 100 µM (inactive)
GI50 (SK-MEL-2): > 100 µM (inactive)
GI50 (SK-MEL-5): > 100 µM (inactive)
GI50 (SK-OV-3): > 100 µM (inactive)
GI50 (SN12C): > 100 µM (inactive)
GI50 (SNB-19): > 100 µM (inactive)
GI50 (SNB-75): > 100 µM (inactive)
GI50 (SR): > 100 µM (inactive)
GI50 (SW-620): > 100 µM (inactive)
GI50 (T47D): > 100 µM (inactive)
GI50 (TK-10): > 100 µM (inactive)
GI50 (U-251): > 100 µM (inactive)
GI50 (UACC-257): > 100 µM (inactive)
GI50 (UACC-62): > 100 µM (inactive)
GI50 (UO-31): > 100 µM (inactive)

COc1nc2c(c(=O)n1C)N(C(C)=O)C1C(N2)OCC(OC(C)=O)C1OC(C)=O (stereo not drawn)
GI50 (786-0): > 10 µM (inactive)
GI50 (A498): > 10 µM (inactive)
GI50 (A549): > 10 µM (inactive)
GI50 (ACHN): > 10 µM (inactive)
GI50 (BT-549): > 10 µM (inactive)
GI50 (CAKI-1): > 10 µM (inactive)
GI50 (CCRF-CEM): > 10 µM (inactive)
GI50 (COLO 205): > 10 µM (inactive)
GI50 (DU-145): > 10 µM (inactive)
GI50 (EKVX): > 10 µM (inactive)
GI50 (HCC 2998): > 10 µM (inactive)
GI50 (HCT-116): > 10 µM (inactive)
GI50 (HCT-15): > 10 µM
GI50 (HL-60): > 10 µM (inactive)
GI50 (HOP-62): > 10 µM (inactive)
GI50 (HOP-92): > 10 µM (inactive)
GI50 (HT-29): > 10 µM (inactive)
GI50 (Hs-578T): > 10 µM (inactive)
GI50 (IGROV-1): > 10 µM (inactive)
GI50 (K562): > 10 µM (inactive)
GI50 (KM12): > 10 µM (inactive)
GI50 (LOX IMVI): > 10 µM (inactive)
GI50 (M14): > 10 µM (inactive)
GI50 (MCF7): > 10 µM (inactive)
GI50 (MDA-MB-231): > 10 µM (inactive)
GI50 (MDA-MB-435): > 10 µM (inactive)
GI50 (MDA-N): > 10 µM (inactive)
GI50 (MOLT-4): > 10 µM (inactive)
GI50 (Malme-3M): > 10 µM (inactive)
GI50 (NCI-H226): > 10 µM (inactive)
GI50 (NCI-H23): > 10 µM (inactive)
GI50 (NCI-H460): > 10 µM (inactive)
GI50 (NCI-H522): > 10 µM (inactive)
GI50 (NCI/ADR-RES): > 10 µM (inactive)
GI50 (OVCAR-3): > 10 µM (inactive)
GI50 (OVCAR-4): > 10 µM (inactive)
GI50 (OVCAR-5): > 10 µM (inactive)
GI50 (OVCAR-8): > 10 µM (inactive)
GI50 (PC-3): > 10 µM (inactive)
GI50 (RPMI-8226): > 10 µM (inactive)
GI50 (RXF 393): > 10 µM (inactive)
GI50 (SF-268): > 10 µM (inactive)
GI50 (SF-295): > 10 µM (inactive)
GI50 (SF-539): > 10 µM (inactive)
GI50 (SK-MEL-28): > 10 µM (inactive)
GI50 (SK-MEL-2): > 10 µM (inactive)
GI50 (SK-MEL-5): > 10 µM (inactive)
GI50 (SK-OV-3): > 10 µM (inactive)
GI50 (SN12C): > 10 µM (inactive)
GI50 (SNB-19): > 10 µM (inactive)
GI50 (SNB-75): > 10 µM (inactive)
GI50 (SR): > 10 µM (inactive)
GI50 (SW-620): > 10 µM (inactive)
GI50 (T47D): > 10 µM (inactive)
GI50 (TK-10): > 10 µM (inactive)
GI50 (U-251): > 10 µM (inactive)
GI50 (UACC-257): > 10 µM (inactive)
GI50 (UACC-62): > 10 µM (inactive)
GI50 (UO-31): > 10 µM (inactive)
